Values of other authors as cited in patent US10821185B2, “Triglyceride otic formulations and uses thereof” (Otonomy, Inc., priority 2016, dated 2020).
Counter-ions that a name gives are not always drawn. Each block holds one molecule with its values, some of them ahead of it.

Legend:
[1] = target: D136A mutant VP2 receptor (Homo sapiens, UniProt P30518, D136A)
V2-R = settings: infusion into the scala tympani
[2] = system: LPS-induced human PBMC cells; settings: read-out: IC50 for inhibiting TNF-α production
[3] = system: LPS-induced MonoMac-6 cells; settings: read-out: IC50 for inhibiting TNF-α production
[4] = systemic administration
rat arthritis model = settings: 30 mg/kg
TNF-α = settings: LPS-challenged mice
tinnitus = settings: administered by IV
[5] = after topical application
[6] = system: mouse collagen-induced arthritis model; settings: 30 mg/kg dose
[7] = systemically treated

Molecule: Cc1ccccc1C(=O)Nc1ccc(C(=O)N2CCCC(N(C)C)c3ccccc32)cc1 (racemic) [OPC-31260, (±)-5-dimethylamino-1-(4-[2-methylbenzoylamino]benzoyl)-2,3,4,5-tetrahydro-1H-benzazepin hydrochloride]
behaviour at constitutively activated D136A mutant VP2 receptor [1]: inverse agonist
Meniere's disease symptoms (V2-R): marked reduction of Meniere's disease symptoms

Molecule: CC[C@H](C)[C@H](NC(=O)[C@H](CC(C)C)[C@H](C(C)C)N(O)C=O)C(=O)Nc1ccccn1 [GW3333]
IC50 [2]: 970 nM

Molecule: CCOc1ccc2c(c1)C1(CCC(OCCN3CCOCC3)CC1)C(=O)N2S(=O)(=O)c1ccc(C(=O)NC(C)(C)C)cc1OC (stereo not drawn) [SR-1211463, 1-(4-(N-tert-butylcarbamoyl)-2-methoxybenzenesulfonyl)-5-ethoxy-3-spiro-(4-(2-morpholinoethoxy)cyclohexane)indol-2-one fumarate]
behaviour at constitutively activated D136A mutant VP2 receptor [1]: inverse agonist

IC50 [3]: 34 nM
Molecule: CC(C)C[C@@H](C(=O)N[C@@H](CCCN/C(N)=N/[N+](=O)[O-])C(=O)Nc1nccs1)[C@H](C(C)C)N(O)C=O [Nitroarginine analog A]

Molecule: adalimumab
patients developing injection site reactions (erythema and/or itching, hemorrhage, pain and/or swelling) [4]: 20%

Molecule: COc1cccc2nc(-c3cccs3)nc(NN3C(=O)C=C(C)C3=O)c12 [SPC-839]
paw edema (rat arthritis model): reduces paw edema

Molecule: O=C(Nc1cc(Cl)cc2c1[nH]c1cnccc12)c1cccnc1 [PS-1145]
production of TNF-α (TNF-α): reduces the production of TNF-α

Molecule: CCN(CC)CC(=O)Nc1c(C)cccc1C [Lidocaine]
sufferers in whom the noise associated with tinnitus is reduced or eliminated (tinnitus): 60-80%

bioavailability [5]: less than 0.5%
Molecule: C=CC[C@@H]1/C=C(\C)C[C@H](C)C[C@H](OC)[C@H]2O[C@@](O)(C(=O)C(=O)N3CCCC[C@H]3C(=O)O[C@H](/C(C)=C/[C@@H]3CC[C@@H](O)[C@H](OC)C3)[C@H](C)[C@@H](O)CC1=O)[C@H](C)C[C@@H]2OC (relative stereo) [tacrolimus, [3S-[3R*[E(1S*,3S*,4S*)], 4S*,5R*,8S*,9E,12R*,14R*,15S*,16R*,18S*,19S*,26aR*]]-5,6,8,11,12,13,14,15,16,17,18,19,24,25,26,26a-hexadecahydro-5,19-dihydroxy-3-[2-(4-hydroxy-3-methoxycyclohexyl)-1-methylethenyl]-14,16-dimethoxy-4,10,12,18-tetramethyl-8-(2-propenyl)-15,19-epoxy-3H-pyrido[2,1-39c][1,4]oxaazacyclotricosine-1,7,20,21(4H,23H)-tetrone monohydrate]

Molecule: Cc1ccc2nc(NCCN)c3ncc(C)n3c2c1 [BMS-345541]
severity of disease [6]: significantly reduced the severity of disease

Molecule: etanercept
patients experiencing injection site reactions [7]: over one-third of patients
